# US20140142128A1, “METHODS OF TREATING A DISEASE OR DISORDER ASSOCIATED WITH BRUTON'S TYROSINE KINASE” (Celgene Avilomics Research, Inc., priority 2012, published 2014)
# How the values were obtained:
# [1] = tested on: Btk responsive site (Tyr1217) on PLCγ2; assay: PLCγ2 phosphorylation in Ramos cells; assay type: cell-based; conditions: human Burkitt lymphoma cell line, read-out: EC50, inhibition of phosphorylation of the Btk responsive site (Tyr1217) on PLCγ2
# [2] = tested on: relapsed/refractory CLL; conditions: lenalidomide 25 mg for 21 days of every 28-day cycle; cited from earlier work
Compound,EC50 [1] [nM],Clinical responses (CR or PR) in subjects refractory to fludarabine [2] [%],Clinical responses (CR or PR) in subjects with del (11)(q23) and/or del (17)(p13.1) adverse cytogenetics [2] [%]
"C=CC(=O)Nc1cccc(Nc2nc(Nc3ccc(OCCOC)cc3)ncc2F)c1 [Compound 1, N-(3-(5-fluoro-2-(4-(2-methoxyethoxy)phenylamino)pyrimidin-4-ylamino)phenyl)acrylamide]",1 to 10,–,–
"Nc1cccc2c1CN(C1CCC(=O)NC1=O)C2=O (stereo not drawn) [lenalidomide, 3-(4-amino-1-oxo-1,3-dihydro-2H-isoindol-2-yl)piperidine-2,6-dione]",–,30,47
